Experimental data taken from patent US10954269B2, “Anti-inflammatory tripeptides” (Dr. August Wolff Gmbh & Co. KG Arzneimittel, priority 2013, dated 2021).
[ ]: non-standard residue; d: D form. Aib = CC(C)(N)C(=O)O

Assays:
[1] = test system: human keratinocyte cell line (HaCaT); assay: Cytokine secretion on protein level in activated human keratinocyte cell line HaCaT (13-plex FACS / Luminex, supernatant); format: cell-based; settings: for IL-1 cytokine concentration / IL-2 cytokine concentration / IL-4 cytokine concentration / IL-5 cytokine concentration / IL-6 cytokine concentration / IL-9 cytokine concentration / IL-10 cytokine concentration / IL-13 cytokine concentration / IL-17 cytokine concentration / TNF-α cytokine concentration / IL-12p70 cytokine concentration / IL-22 cytokine concentration / IFN-γ cytokine concentration: 10^−9M; for IL-12p70 cytokine concentration / IL-22 cytokine concentration: excluded from the final assessment
Outline: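 First, T-cells are isolated from healthy donors' blood. Next, they and HaCaT keratinocytes are activated for 48 h with PMA/Ionomycin or IFN-γ in the presence of tripeptides. Finally, secreted cytokines are quantified in supernatants by 13-plex FACS at 48 and 72 h.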

[2] = test system: primary murine T-cells; assay: Cytokine secretion on protein level in activated primary murine T-cells (13-plex FACS / Luminex, supernatant); format: cell-based, C57BL/6 mice; settings: 10^−9M
Outline: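 T-cells from secondary lymphatic organs of naïve C57BL/6 mice, stimulated with PMA/Ionomycin or IFN-γ; supernatant cytokines measured by 13-plex FACS 48 h and 72 h after stimulation. In another run, PMA/Ionomycin-stimulated cells received compounds at 10^−7, 10^−9 and 10^−11 M, with IFN-γ, IL-17 and IL-10 measured by Luminex.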

[3] = test system: primary human T-cells; assay: Cytokine secretion on protein level in activated primary human T-cells (13-plex FACS / Luminex, supernatant); format: cell-based; settings: 10^−9M
Outline: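 Stimulus: PMA/Ionomycin or IFN-γ, 48 h; cells: HaCaT or human peripheral-blood T-cells; tripeptide treatment; readout: supernatant cytokines via 13-plex FACS or Luminex, 48–72 h post-stimulation.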

[4] = HaCaT stimulated with PMA/Ionomycin
[5] = primary murine T-cells stimulated with IFN-γ
[6] = primary murine T-cells stimulated with PBS
[7] = primary murine T-cells stimulated with PMA/Ionomycin
[8] = primary murine T-cells stimulated with PMA/Ionomycin, 1:10 dilution of the supernatants
[9] = primary human T-cells stimulated with IFN-γ
[10] = primary human T-cells stimulated with PBS
[11] = primary human T-cells stimulated with PMA/Ionomycin

Substance: H-Lys-[dP]-[Aib]-OH [Example 1]
- IL-1 cytokine concentration ([1]; HaCaT stimulated with IFN-γ): 251.36 pg/mL
- IL-2 cytokine concentration ([1]; HaCaT stimulated with IFN-γ): 95.81 pg/mL
- IL-4 cytokine concentration ([1]; HaCaT stimulated with IFN-γ): 88.93 pg/mL
- IL-5 cytokine concentration ([1]; HaCaT stimulated with IFN-γ): 156.74 pg/mL
- IL-6 cytokine concentration ([1]; HaCaT stimulated with IFN-γ): 704.01 pg/mL
- IL-9 cytokine concentration ([1]; HaCaT stimulated with IFN-γ): 96.1 pg/mL
- IL-10 cytokine concentration ([1]; HaCaT stimulated with IFN-γ): 107.72 pg/mL
- IL-13 cytokine concentration ([1]; HaCaT stimulated with IFN-γ): 57.99 pg/mL
- IL-17 cytokine concentration ([1]; HaCaT stimulated with IFN-γ): 612.41 pg/mL
- TNF-α cytokine concentration ([1]; HaCaT stimulated with IFN-γ): 101.29 pg/mL
- IL-12p70 cytokine concentration ([1]; HaCaT stimulated with IFN-γ): 1872.11 pg/mL
- IL-22 cytokine concentration ([1]; HaCaT stimulated with IFN-γ): 18014.5 pg/mL
- IFN-γ cytokine concentration ([1]; HaCaT stimulated with PBS): 373.53 pg/mL
- IL-1 cytokine concentration ([1]; HaCaT stimulated with PBS): 224.9 pg/mL
- IL-2 cytokine concentration ([1]; HaCaT stimulated with PBS): 87.98 pg/mL
- IL-4 cytokine concentration ([1]; HaCaT stimulated with PBS): 85.92 pg/mL
- IL-5 cytokine concentration ([1]; HaCaT stimulated with PBS): 181.61 pg/mL
- IL-6 cytokine concentration ([1]; HaCaT stimulated with PBS): 77.53 pg/mL
- IL-9 cytokine concentration ([1]; HaCaT stimulated with PBS): 112.82 pg/mL
- IL-10 cytokine concentration ([1]; HaCaT stimulated with PBS): 166.47 pg/mL
- IL-13 cytokine concentration ([1]; HaCaT stimulated with PBS): 64.17 pg/mL
- IL-17 cytokine concentration ([1]; HaCaT stimulated with PBS): 562.61 pg/mL
- TNF-α cytokine concentration ([1]; HaCaT stimulated with PBS): 87.84 pg/mL
- IL-12p70 cytokine concentration ([1]; HaCaT stimulated with PBS): 1881.61 pg/mL
- IL-22 cytokine concentration ([1]; HaCaT stimulated with PBS): 18087.5 pg/mL
- IFN-γ cytokine concentration [1, 4]: 531 pg/mL
- IL-1 cytokine concentration [1, 4]: 118.79 pg/mL
- IL-2 cytokine concentration [1, 4]: 184.58 pg/mL
- IL-4 cytokine concentration [1, 4]: 78.12 pg/mL
- IL-5 cytokine concentration [1, 4]: 141.02 pg/mL
- IL-6 cytokine concentration [1, 4]: 131.98 pg/mL
- IL-9 cytokine concentration [1, 4]: 108.97 pg/mL
- IL-10 cytokine concentration [1, 4]: 48.13 pg/mL
- IL-13 cytokine concentration [1, 4]: 49.03 pg/mL
- IL-17 cytokine concentration [1, 4]: 449.68 pg/mL
- TNF-α cytokine concentration [1, 4]: 77.12 pg/mL
- IL-12p70 cytokine concentration [1, 4]: 0 pg/mL
- IL-22 cytokine concentration [1, 4]: 8956.12 pg/mL
- secretion / expression of pro-inflammatory cytokines (supernatant) ([1]; activated human keratinocytes): decreased secretion
- IL-1 cytokine concentration [2, 5]: 0 pg/mL
- IL-2 cytokine concentration [2, 5]: 0 pg/mL
- IL-4 cytokine concentration [2, 5]: 0 pg/mL
- IL-5 cytokine concentration [2, 5]: 0 pg/mL
- IL-6 cytokine concentration [2, 5]: 6.51 pg/mL
- IL-10 cytokine concentration [2, 5]: 0 pg/mL
- IL-13 cytokine concentration [2, 5]: 0 pg/mL
- IL-17 cytokine concentration [2, 5]: 10.81 pg/mL
- IL-21 cytokine concentration [2, 5]: 0 pg/mL
- IL-22 cytokine concentration [2, 5]: 0 pg/mL
- IL-27 cytokine concentration [2, 5]: 179.72 pg/mL
- TNF-α cytokine concentration [2, 5]: 0 pg/mL
- IFN-γ cytokine concentration [2, 6]: 0 pg/mL
- IL-1 cytokine concentration [2, 6]: 53.09 pg/mL
- IL-2 cytokine concentration [2, 6]: 0 pg/mL
- IL-4 cytokine concentration [2, 6]: 0 pg/mL
- IL-5 cytokine concentration [2, 6]: 0 pg/mL
- IL-6 cytokine concentration [2, 6]: 0 pg/mL
- IL-10 cytokine concentration [2, 6]: 110.76 pg/mL
- IL-13 cytokine concentration [2, 6]: 0 pg/mL
- IL-17 cytokine concentration [2, 6]: 0 pg/mL
- IL-21 cytokine concentration [2, 6]: 0 pg/mL
- IL-22 cytokine concentration [2, 6]: 0 pg/mL
- IL-27 cytokine concentration [2, 6]: 379.78 pg/mL
- TNF-α cytokine concentration [2, 6]: 0 pg/mL
- IL-1 cytokine concentration [2, 7]: 60.61 pg/mL
- IL-4 cytokine concentration [2, 7]: 0 pg/mL
- IL-5 cytokine concentration [2, 7]: 292.17 pg/mL
- IL-6 cytokine concentration [2, 7]: 239.47 pg/mL
- IL-10 cytokine concentration [2, 7]: 145.26 pg/mL
- IL-13 cytokine concentration [2, 7]: 3898.42 pg/mL
- IL-17 cytokine concentration [2, 7]: 459.99 pg/mL
- IL-21 cytokine concentration [2, 7]: 0 pg/mL
- IL-22 cytokine concentration [2, 7]: 526.42 pg/mL
- IL-27 cytokine concentration [2, 7]: 426.79 pg/mL
- TNF-α cytokine concentration [2, 7]: 535.51 pg/mL
- IFN-γ* cytokine concentration [2, 8]: 0 pg/mL
- IL-2* cytokine concentration [2, 8]: 1354.76 pg/mL
- IL-1 cytokine concentration [3, 9]: 296.42 pg/mL
- IL-2 cytokine concentration [3, 9]: 515.89 pg/mL
- IL-4 cytokine concentration [3, 9]: 180.24 pg/mL
- IL-5 cytokine concentration [3, 9]: 112.65 pg/mL
- IL-6 cytokine concentration [3, 9]: 131.33 pg/mL
- IL-9 cytokine concentration [3, 9]: 111.14 pg/mL
- IL-10 cytokine concentration [3, 9]: 164.32 pg/mL
- IL-12p70 cytokine concentration [3, 9]: 945.16 pg/mL
- IL-13 cytokine concentration [3, 9]: 82.57 pg/mL
- IL-17 cytokine concentration [3, 9]: 234.65 pg/mL
- IL-22 cytokine concentration [3, 9]: 21389.5 pg/mL
- TNF-α cytokine concentration [3, 9]: 230.57 pg/mL
- IFN-γ cytokine concentration [3, 10]: 634.2 pg/mL
- IL-1 cytokine concentration [3, 10]: 398.01 pg/mL
- IL-2 cytokine concentration [3, 10]: 545.22 pg/mL
- IL-4 cytokine concentration [3, 10]: 198.06 pg/mL
- IL-5 cytokine concentration [3, 10]: 275.55 pg/mL
- IL-6 cytokine concentration [3, 10]: 85.95 pg/mL
- IL-9 cytokine concentration [3, 10]: 131.69 pg/mL
- IL-10 cytokine concentration [3, 10]: 107.07 pg/mL
- IL-12p70 cytokine concentration [3, 10]: 223.67 pg/mL
- IL-13 cytokine concentration [3, 10]: 77.6 pg/mL
- IL-17 cytokine concentration [3, 10]: 295.13 pg/mL
- IL-22 cytokine concentration [3, 10]: 2227.62 pg/mL
- TNF-α cytokine concentration [3, 10]: 203.95 pg/mL
- IFN-γ cytokine concentration [3, 11]: 2516.08 pg/mL
- IL-1 cytokine concentration [3, 11]: 11244.1 pg/mL
- IL-2 cytokine concentration [3, 11]: 12000 pg/mL
- IL-4 cytokine concentration [3, 11]: 209.61 pg/mL
- IL-5 cytokine concentration [3, 11]: 204.84 pg/mL
- IL-6 cytokine concentration [3, 11]: 1868.8 pg/mL
- IL-9 cytokine concentration [3, 11]: 159.86 pg/mL
- IL-10 cytokine concentration [3, 11]: 3032.66 pg/mL
- IL-12p70 cytokine concentration [3, 11]: 925.71 pg/mL
- IL-13 cytokine concentration [3, 11]: 398.98 pg/mL
- IL-17 cytokine concentration [3, 11]: 2443.34 pg/mL
- IL-22 cytokine concentration [3, 11]: 24324.9 pg/mL
- TNF-α cytokine concentration [3, 11]: 3600 pg/mL
